Reference: patent publication EP1203770A1 (priority 1992, dated 1994)

Molecular target: T1, HIV-1 protease (Human immunodeficiency virus type 1 group M subtype B, UniProt P04585)
T1 construct: The protease (or proteinase), consisting of only 99 amino acids, is among the smallest enzymes known
Assay: In vitro HIV protease inhibitory assay (HIV Protease FITC Assay)
Type: biochemical
Conditions: for inhibition at 0.123 µM / inhibition at 0.37 µM / inhibition at 1.1 µM / inhibition at 3.3 µM / inhibition at 10 µM / inhibition at 30 µM: read-out: HIV-1 Protease % Inhib; for Ki: read-out: HIV-1 FITC Ki
Procedure, shortened: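 Biotin/FITC-labelled peptide substrate cleaved by HIV-1 protease for 1 h at room temperature in the dark, in 0.1 M sodium acetate pH 5.5, 1.0 M NaCl, 0.05% NP-40. Uncleaved substrate captured on avidin beads and separated by filtration; fluorescence gave % inhibition.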

Structure (SMILES) | inhibition at 0.123 µM (HIV-1 Dose 0.123 uM) [%] | inhibition at 0.37 µM (HIV-1 Dose 0.370 uM) [%] | inhibition at 1.1 µM (HIV-1 Dose 1.100 uM) [%] | inhibition at 3.3 µM (HIV-1 Dose 3.300 uM) [%] | inhibition at 10 µM (HIV-1 Dose 10.000 uM) [%] | inhibition at 30 µM (HIV-1 Dose 30.000 uM) [%] | Ki [nM] | HIV-1 Protease % Inhib (HIV-1 Dose 0.123 uM) [%] | HIV-1 Protease % Inhib (HIV-1 Dose 0.370 uM) [%] | HIV-1 Protease % Inhib (HIV-1 Dose 1.100 uM) [%] | HIV-1 Protease % Inhib (HIV-1 Dose 3.300 uM) [%] | HIV-1 Protease % Inhib (HIV-1 Dose 10.000 uM) [%] | HIV-1 Protease % Inhib (HIV-1 Dose 30.000 uM) [%]
CCCC1(Cc2ccccc2)CC(O)=C(C(C=Cc2ccccc2)c2ccccc2)C(=O)O1 (stereo not shown) [Example 176, 3-(1,3-Diphenyl-2-propenyl)-5,6-dihydro-4-hydroxy-6-(phenylmethyl)-6-propyl-2H-pyran-2-one] | < 10 | < 10 | 28.9 | 62.3 | 88.7 | 101 | – | – | – | – | – | – | –
CCCC1(Cc2ccccc2)CC(O)=C(C(CCc2ccccc2)c2ccccc2)C(=O)O1 (stereo not shown) [Example 177, 3-(1,3-Diphenylpropyl)-5,6-dihydro-4-hydroxy-6-(phenylmethyl)-6-propyl-2H-pyran-2-one] | < 10 | 19.7 | 48.2 | 74.2 | 89.3 | 95 | – | – | – | – | – | – | –
CCC(Cc1ccccc1)c1cc(O)c(C(c2cccc(NS(=O)(=O)c3ccccc3)c2)C2CC2)c(=O)o1 (stereo not drawn) [Example 178, 3-(α-Cyclopropyl-meta-(phenylsulfonylamino)benzyl)-6-(α-ethylphenethyl)-4-hydroxy-2H-pyran-2-one] | 21.6 | 61.9 | 83.1 | 95.5 | 104 | 107 | 17.4 | – | – | – | – | – | –
CCCS(=O)(=O)Nc1cccc(C(c2c(O)cc(C(CC)Cc3ccccc3)oc2=O)C2CC2)c1 (stereo not drawn) [Example 179, 3-(α-Cyclopropyl-meta-(propylsulfonylamino)benzyl)-6-(α-etylphenethyl)-4-hydroxy-2H-pyran-2-one] | 23.7 | 61.9 | 77.9 | 94.4 | 95.1 | 102 | 40 | – | – | – | – | – | –
CCC(Cc1ccccc1)c1cc(O)c(C(c2cccc(NS(=O)(=O)/C=C/c3ccccc3)c2)C2CC2)c(=O)o1 (stereo not drawn) [Example 180, 3-(α-Cyclopropyl-meta-((E)-2-phenylethenylsulfonylamino)benzyl)-6-(α-ethylphenethyl)-4-hydroxy-2H-pyran-2-one] | 32 | 55.9 | 80.5 | 91.9 | 99.5 | 98 | 23.3 | – | – | – | – | – | –
CCC(Cc1ccccc1)c1cc(O)c(C(c2cccc(NS(=O)(=O)c3ccc(Br)cc3)c2)C2CC2)c(=O)o1 (stereo not drawn) [Example 181, 3-(α-Cyclopropyl-meta-(4-bromophenylsulfonylamino)benzyl)-6-(α-ethylphenethyl)-4-hydroxy-2H-pyran-2-one] | 32.6 | 64.5 | 82.4 | 95.3 | 101 | 95.5 | 18.9 | – | – | – | – | – | –
CCC(Cc1ccccc1)c1cc(O)c(C(c2cccc(NS(=O)(=O)c3cc(Cl)ccc3Cl)c2)C2CC2)c(=O)o1 (stereo not drawn) [Example 182, 3-(α-Cyclopropyl-meta-(2,5-dichlorophenylsulfonylamino)benzyl)-6-(α-ethylphenethyl)-4-hydroxy-2H-pyran-2-one] | < 10 | 15 | 45.7 | 71.9 | 94.9 | 96.5 | – | – | – | – | – | – | –
CCC(Cc1ccccc1)c1cc(O)c(C(c2cccc(NS(=O)(=O)c3ccc(C(C)(C)C)cc3)c2)C2CC2)c(=O)o1 (stereo not drawn) [Example 183, 3-(α-Cyclopropyl-meta-(4-tert-butylphenylsulfonylamino)benzyl)-6-(α-ethylphenethyl)-4-hydroxy-2H-pyran-2-one] | < 10 | 11.9 | 28.2 | 60.6 | 88.9 | 90.8 | – | – | – | – | – | – | –
CCC(Cc1ccccc1)c1cc(O)c(C(c2cccc(NS(=O)(=O)c3ccc(C#N)cc3)c2)C2CC2)c(=O)o1 (stereo not drawn) [Example 184, 3-(α-Cyclopropyl-meta-(4-cyanophenylsulfonylamino)benzyl)-6-(α-ethylphenethyl)-4-hydroxy-2H-pyran-2-one] | 65 | 87 | 94.5 | 99 | 102 | 102 | 5.7 | – | – | – | – | – | –
CCC(Cc1ccccc1)c1cc(O)c(C(c2cccc(NS(=O)(=O)c3ccc(OC)cc3)c2)C2CC2)c(=O)o1 (stereo not drawn) [Example 185, 3-(α-Cyclopropyl-meta-(4-methoxyphenylsulfonylamino)benzyl)-6-(α-ethylphenethyl)-4-hydroxy-2H-pyran-2-one] | 40.5 | 71.4 | 89.1 | 95.9 | 103 | 92.9 | – | – | – | – | – | – | –
CCC(c1ccccc1)c1cc(O)c(C(CC)c2ccccc2)c(=O)o1 (stereo not drawn) [Example 186, 3-α-Ethylbenzyl-6-α-ethylbenzyl-4-hydroxy-2H-pyran-2-one] | < 10 | < 10 | < 10 | 11 | 41.6 | 61.6 | 22.4 | – | – | – | – | – | –
CC[C@H](Cc1ccccc1)c1cc(O)c([C@@H](CC)c2ccccc2)c(=O)o1 [Example 189, 3-([S]-α-ethylbenzyl)-4-hydroxy-6-([R]-α-ethylphenethyl)-2H-pyran-2-one] | – | – | – | – | – | – | ~15 | – | – | – | – | – | –
CC(C)CC1(CCc2ccccc2)CC(O)=C(C(c2ccccc2)c2ccccc2)C(=O)O1 (stereo not shown) [Example 209, 2H-Pyran-2-one, 3-diphenylmethyl-5,6-dihydro-4-hydroxy-6-(2-methylpropyl)-6-(2-phenylethyl)-] | < 10 | 12 | 32.2 | 59.9 | 76.7 | 77.8 | 92 | – | – | – | – | – | –
CC(C)CC1(CCc2ccccc2)CC(O)=C(C(/C=C/c2ccccc2)c2ccccc2)C(=O)O1 (stereo not shown) [Example 210, 2H-Pyran-2-one, 3-(1,3-diphenyl-2-propenyl)-5.6-dihydro-4-hydroxy-6-(2-methylpropyl)-6-(2-phenylethyl)-] | < 10 | < 10 | 37.5 | 61 | 75 | 86 | 78 | – | – | – | – | – | –
CC(C)CC1(CCc2ccccc2)CC(O)=C(C(CCc2ccccc2)c2ccccc2)C(=O)O1 (stereo not shown) [Example 211] | – | – | – | – | – | – | 64 | <10 | 21.39 | 47.29 | 66.35 | 89.15 | 92.11
CCC(Cc1ccccc1)c1cc(O)c(C(c2cccc(NC(=O)Nc3ccccc3)c2)C2CC2)c(=O)o1 (stereo not drawn) [Example 212, 3-(α-Cyclopropyl-meta-[(phenylaminocarbonyl)amino]benzyl)-6-(α-ethylphenethyl)-4-hydroxy-2H-pyran-2-one] | < 10 | < 10 | 17.8 | 43.2 | 67.1 | 69.6 | – | – | – | – | – | – | –
CCC(Cc1ccccc1)c1cc(O)c(C(c2cccc(NC(=O)NCc3ccccc3)c2)C2CC2)c(=O)o1 (stereo not drawn) [Example 213, 3-(α-Cyclopropyl-meta-[(benzylaminocarbonyl)amino]benzyl)-6-(α-ethylphenethyl)-4-hydroxy-2H-pyran-2-one] | < 10 | 12.1 | 30 | 55.4 | 83.7 | 85.8 | – | – | – | – | – | – | –
